≈ marks a conversion by molar mass, not a printed value. Like-named read-outs stand apart in the source and are kept apart here.
Assays:
[1] = buffer
physchem [2] = conditions: kinetic from dmso stock
Primary cortical cells = experiment: Reduction of neuronal cell death after a glutamate challenge (MTT / LDH release); format: cell-based; conditions: for inhibition at 5 µM: 24 h, read-out: reduction in cell death at a 5 μM dose; for dose at maximum efficacy: primary cortical cells; for Emax: read-out: maximum efficacy, reduction in cell death
[3] = test system: cerebral edema in rats following bilateral cortical contusion; conditions: rat; for reduction of brain edema after 24 hours compared to untreated rats: in vivo
[4] = Rat pharmacokinetic profile, i.m. injection; format: in vivo; conditions: rats
Procedure: PK Animal Methods. Rat PK studies were done in jugular cannulated male SD rats, weighing 250-300 grams. 7 was dosed i.v. and i.m.; 13 was dosed i.m. only. For i.v. dosing 7 was formulated in PEG 300/glycofurol/Tween 80/water (26/5/2/67) and dosed @ 10 mg/kg and 3.3 ml/kg. For i.m. dosing, both compounds were formulated in propylene glycol/Tween 80/50 mM Citrate, pH 5.0 (40/4/56) and dosed @10 mg/kg and 1 ml/kg into the upper leg. Blood samples (0.3 ml) were taken at 0.25, 0.50, 1, 2, 4, 6 & 8 hours in the i.m. experiments; the same time points were used for the i.v. experiment, with the addition of an early 0.08 hr (5 min) time point. Samples were collected in either Li heparin or K EDTA microtainers, centrifuged at 2000×g for 10 minutes. Plasma was then transferred to 2 ml Eppendorf tubes, frozen on dry ice and transferred to a −80° C. freezer for storage until analysis for prodrug, oxime and progesterone by LC/MS/MS, followed by pharmacokinetic analysis by WinNonlin.

[5] = male, Sprague-Dawley (SD), rat, in vivo, iv, 10 mg/kg
[6] = rat plasma
[7] = human plasma
[8] = In vitro metabolism in human liver microsomes; conditions: human liver microsomes at 37° C., 0-60 min
[9] = test system: moderate to severe TBI patients; conditions: 3 days of intravenous treatment, 100 moderate to severe TBI patients; cited from earlier work
physchem [10] = conditions: pH 7
[11] = Exposure to rat S9 liver fractions; format: in vitro ADME; conditions: hydrochloride
physchem [12] = conditions: aqueous with cosolvent or surfactant or cyclodextrin

Row | SMILES | solubility at 90 min (physchem [2]; pH 4, aqueous buffer) | solubility at 90 min (physchem [2]; pH 7, aqueous buffer) | inhibition at 5 µM (Primary cortical cells) | dose at maximum efficacy (Primary cortical cells; glutamate challenge) | Emax (Primary cortical cells) | reduction of brain edema after 24 hours compared to untreated rats [3] | plasma levels of free oxime, parent prodrug and progesterone [4] | plasma levels of parent, free oxime and progesterone [5] | conversion to progesterone [6] | conversion to progesterone [7] | also measured
1 | C/C(=N\OC(=O)CN(C)C)[C@H]1CC[C@H]2[C@@H]3CCC4=CC(=O)CC[C@]4(C)[C@H]3CC[C@]12C [Compound 10, (8S,9S,10R,13S,14S,17S)-17-((E)-1-(2-(Dimethylamino)acetoxyimino)ethyl)-10,13-dimethyl-6,7,8,9,10,11,12,13,14,15,16,17-dodecahydro-1H-cyclopenta[a]phenanthren-3(2H)-one] | 449 µM (≈ 186 µg/mL) | 171 µM (≈ 70.9 µg/mL) | – | – | – | – | – | – | – | – | Aqueous Stability t1/2 at pH = 7.0 [1]: 6.2 h
2 | C/C(=N\O)[C@H]1CC[C@H]2[C@@H]3CCC4=CC(=O)CC[C@]4(C)[C@H]3CC[C@]12C [Compound 3, (8S,9S,10R,13S,14S,17S)-17-((E)-1-(Hydroxyimino)ethyl)-10,13-dimethyl-6,7,8,9,10,11,12,13,14,15,16,17-dodecahydro-1H-cyclopenta[a]phenanthren-3(2H)-one] | – | – | – | – | – | – | – | – | – | – | aqueous solubility (neutral pH): highly insoluble
3 | CC(=O)[C@H]1CC[C@H]2[C@@H]3CCC4=C/C(=N/OC(=O)[C@@H](N)C(C)C)CC[C@]4(C)[C@H]3CC[C@]12C.Cl [Compound 1, (S)-1-((E)-((8S,9S,10R,13S,14S,17S)-17-Acetyl-10,13-dimethyl-7,8,9,11-tetrahydro-1H-cyclopenta[a]phenanthren-3 (2H,6H, 1 OH, 12H, 13H, 14H, 15H, 16H, 17H)-ylidene)aminooxy)-2-amino-3-methylbutan-1-one Hydrochloride] | 322 µM | 172 µM | 27% | 5 µM | 27% | 59% | generated measurable concentrations of the corresponding oximes without evidence of either the parent prodrug or progesterone | hydrolyzed rapidly to provide large concentrations of the free oxime 2 and smaller concentrations of progesterone | neither of the test compounds were converted to progesterone | neither of the test compounds were converted to progesterone | activity in in vitro and in vivo models of brain injury TBI [3]: activity similar to that of progesterone; metabolism in human liver microsomes [8]: hydrolyzed rapidly to the free oxime 2 as well as lesser quantities of progesterone
4 | CC(=O)[C@H]1CC[C@H]2[C@@H]3CCC4=CC(=O)CC[C@]4(C)[C@H]3CC[C@]12C [PROG, Progesterone, reference compound] | < 25 µM | < 25 µM | 4% | 20 µM | 42% | 62% | – | – | – | – | efficacy at the 5 μM dose (Primary cortical cells; 5 μM, glutamate challenge): nearly ineffective; Aqueous solubility at pH 7 (90 min, pH 7): <25 μM; reduction of mortality [9]: over 60%; half-life (physchem [10]; phosphate buffer): > 240 h
5 | C/C(=N\OC(=O)[C@@H](N)C(C)C)[C@H]1CC[C@H]2[C@@H]3CCC4=CC(=O)CC[C@]4(C)[C@H]3CC[C@]12C.Cl [Compound 7, (8S,9S,10R,13 S,14S,17S)-17-((E)-1-((S)-2-Amino-3-methylbutanoyloxyimino)ethyl)-10,13-dimethyl-6,7,8,9,10,11,12,13,14,15,16,17-dodecahydro-1H-cyclopenta[a]phenanthren-3 (2H)-one hydrochloride] | > 645 µM | 146 µM | 24% | 5 µM | 24% | 56% | generated measurable concentrations of the corresponding oximes without evidence of either the parent prodrug or progesterone | low levels of the parent compound 7 was observed, high levels of the relative free oxime 3, and therapeutic levels of progesterone | neither of the test compounds were converted to progesterone | neither of the test compounds were converted to progesterone | Cmax and AUC, compared with 1 [4]: significantly higher Cmax and AUC than the relative C-3 oxime 1; metabolism in rat S9 liver fractions [11]: relatively stable and no measurable quantities of progesterone were generated; levels of progesterone produced, compared with compound 1 [5]: superior to those generated by compound 1; half-life (physchem [10]; buffer): 11.4 h; solubility (physchem [12]): ≥ 60000 µM

Reference: patent US11274118B2 (priority 2012, dated 2022)
